From patent US6559137B1 (priority 1997, dated 2003) come the findings set out here.

For series [1] the following is noted: both, Sprague-Dawley, rat, in vivo, po.
A short description of a further series: in vivo. The conditions noted are these: both, Sprague-Dawley, rat, po.
The conditions of series [2]: dog, in vivo, po.

Where two headings read alike, the source gives them in different places.

As a reminder, the AUC is the area under the concentration-time curve, a measure of exposure. Low readings indicate low exposure, high ones high exposure. As usually defined, the Cmax is the highest concentration seen after dosing. As usually defined, the Tmax is the time from dosing to the highest level. The molecule `CC(C)CN(C[C@@H](O)[C@H](Cc1ccccc1)NC(=O)O[C@H]1CCOC1)S(=O)(=O)c1ccc(N)cc1` [VX-478] displayed an AUC in series [1] of 16200 ± 1800 ng·h/mL. In addition, the area under the curve (AUC) in “in vivo” came out at 29600 ± 5800 ng·h/mL. Besides, in series [2], the AUC came out at 23500 ± 7400 ng·h/mL, the peak concentration (Cmax) was determined as 6800 ± 1100 ng/mL and the time of peak concentration (Tmax) is 1.0 ± 0.8 h.
